IC50 and Ki data for 35 molecules are collected here from patent publication US11787780B2 (CORCEPT THERAPEUTICS INCORPORATED, priority 2020, dated 2023).

Assay [1] concerns the target glucocorticoid receptor (GR) recombinant ligand binding domain (LBD) (Homo sapiens (Human), UniProt P04150). Kind of assay: GR binding fluorescence polarisation (FP) assay. The note with it: displacement of fluorescently tagged ligand. Here is the method: Binding of test compounds to the glucocorticoid receptor (GR) is determined using a fluorescence polarisation (FP) assay utilising a recombinant ligand binding domain (LBD) of GR. The test compounds are assessed by their ability to displace a fluorescently tagged ligand and detection of the resulting decrease in fluorescence polarisation.
Background: Fluorescence polarisation rises when a labelled molecule tumbles more slowly, as on binding a larger partner.

Assay [2] has as its system induction of TAT by dexamethasone in HepG2 cells. The assay can be described thus: Hep G2 TAT assay (inhibition of dexamethasone-induced TAT). The assay is classed as cell-based, human. The note with it: challenge of 100 nM dexamethasone, IC50 converted to Ki by Cheng and Prusoff equation.

For orientation: IC50 means the concentration that gives 50% inhibition. As usually defined, the Ki is a dissociation constant, usually derived from enzyme kinetics or from competition with a known ligand.

Chain of glucocorticoid receptor (GR) recombinant ligand binding domain (LBD) (P04150 524-758): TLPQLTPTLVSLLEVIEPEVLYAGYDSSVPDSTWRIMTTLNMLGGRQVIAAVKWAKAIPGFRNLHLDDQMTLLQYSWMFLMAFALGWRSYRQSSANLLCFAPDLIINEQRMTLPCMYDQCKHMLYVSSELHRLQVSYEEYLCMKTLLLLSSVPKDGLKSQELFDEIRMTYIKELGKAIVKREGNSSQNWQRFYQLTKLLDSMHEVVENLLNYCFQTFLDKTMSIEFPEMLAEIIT

`Cc1cc2c(cnn2-c2ccc(F)cc2)cc1C1(Cc2ccccc2)CCN(S(=O)(=O)c2ccn(C)n2)C1` (stereo not shown) [Example 215, 5-(3-benzyl-1-((1-methyl-1H-pyrazol-3-yl)sulfonyl)pyrrolidin-3-yl)-1-(4-fluorophenyl)-6-methyl-1H-indazole]: the IC50 in assay [1] is 10 nM. Moreover, the inhibitory constant (Ki) in assay [2] was 10 nM.

Take `CCCn1cc(S(=O)(=O)N2CCN(c3cc4cnn(-c5ccc(F)cc5)c4cc3C)C(c3ccccc3)C2)cn1` (stereo not shown) [Example 86]: in assay [1], the IC50 was 162 nM. The affinity in assay [2] corresponds to a Ki of 864 nM.

In the case of `Cc1cc2c(cnn2-c2ccc(F)cc2)cc1C1(Cc2ccc(C(F)(F)F)cc2)CCN(S(C)(=O)=O)C1` (stereo not shown) [Example 177], the concentration for half-maximal inhibition (IC50) in assay [1] worked out at 212 nM. The same molecule returned a Ki in assay [2] of 28 nM.

For the molecule `Cc1cc2c(cnn2-c2cnn(C3COC3)c2)cc1C1(Cc2ccccc2)CCN(S(=O)(=O)c2cnn(C)n2)C1` (stereo not shown) [Example 264, 5-(3-benzyl-1-((2-methyl-2H-1,2,3-triazol-4-yl)sulfonyl)pyrrolidin-3-yl)-6-methyl-1-(1-(oxetan-3-yl)-1H-pyrazol-4-yl)-1H-indazole], in assay [1], the IC50 turned out to be 26 nM. Besides, the inhibition constant Ki in assay [2] was determined as 210 nM.

For `CCCn1cc(S(=O)(=O)N2CCC3(CCN(c4cc5cnn(-c6ccc(F)cc6)c5cc4C)CC3)C2)cn1` [Example 94], in assay [1], the half-inhibitory concentration (IC50) was 52 nM. The inhibitory constant (Ki) in assay [2] is 95 nM.

With `Cc1cc2c(cnn2-c2ccc(F)cc2)cc1N1CCC(C)(NS(=O)(=O)c2cnn(C)c2)CC1` [Example 131], the half-inhibitory concentration (IC50) in assay [1] was 4 nM. The affinity in assay [2] corresponds to a Ki of 98 nM.

Consider `COc1cc2c(cnn2-c2ccc(F)cc2)cc1C1(Cc2ccccc2)CCN(S(=O)(=O)c2cnn(C)n2)C1` (stereo not shown) [Example 218, 5-(3-benzyl-1-((2-methyl-2H-1,2,3-triazol-4-yl)sulfonyl)pyrrolidin-3-yl)-1-(4-fluorophenyl)-6-methoxy-1H-indazole], for which, in assay [1], the concentration for half-maximal inhibition (IC50) was found to be 14 nM. Further, the Ki in assay [2] was found to be 10 nM.

For the molecule `Cc1cc2c(cnn2-c2ccc(F)cc2)cc1C1(Cc2ccc(C(F)(F)F)cn2)CCN(S(=O)(=O)c2cnn(C)c2)C1` (stereo not shown) [Example 169], the 50% inhibitory concentration (IC50) in assay [1] is 217 nM. Also, the affinity in assay [2] corresponds to a Ki of 159 nM.

As for `CC(C)c1cc2c(cnn2-c2ccc(F)cc2)cc1C1(Cc2ccccc2)CCN(S(C)(=O)=O)C1` (stereo not shown) [Example 163], the IC50 in assay [1] came to 106 nM. This molecule displayed an inhibition constant (Ki) in assay [2] of 60 nM.

Turning to `COc1cc2c(cnn2-c2ccc(F)cc2)cc1N1CCN(S(C)(=O)=O)C2(CC2)C1` [Example 70], in assay [1], the IC50 amounted to 28 nM. In addition, the inhibition constant (Ki) in assay [2] came to 1580 nM.

As to `Cc1cc2c(cnn2-c2ccc(F)cc2)cc1N1CCN(C(=O)c2cnn(C)c2)C2(CC2)C1` [Example 100], the IC50 in assay [1] came to 233 nM. In assay [2], the Ki worked out at 1200 nM.

Take `CCCn1cc(NS(=O)(=O)C2CCN(c3cc4cnn(-c5ccc(F)cc5)c4cc3C)C2)cn1` (stereo not shown) [Example 29, 1-(1-(4-fluorophenyl)-6-methyl-1H-indazol-5-yl)-N-(1-propyl-1H-pyrazol-4-yl)pyrrolidine-3-sulfonamide]: the half-maximal inhibitory concentration (IC50) in assay [1] amounted to 9 nM. In assay [2], this molecule had an inhibition constant (Ki) of 210 nM.

Take `CCCn1cc(S(=O)(=O)N(CCOC)[C@@H]2CCN(c3cc4cnn(-c5ccc(F)cc5)c4cc3C)C2)cn1` [Example 122]: the IC50 in assay [1] was 14 nM. The affinity in assay [2] corresponds to a Ki of 155 nM.

Regarding `Cc1cc2c(cnn2-c2ccc(=O)n(C)c2)cc1C1(Cc2ccccc2)CCN(S(=O)(=O)c2cnn(C)n2)C1` (stereo not shown) [Example 266, 5-(5-(3-benzyl-1-((2-methyl-2H-1,2,3-triazol-4-yl)sulfonyl)pyrrolidin-3-yl)-6-methyl-1H-indazol-1-yl)-1-methylpyridin-2(1H)-one], the IC50 in assay [1] came to 4.7 nM. Further, the affinity in assay [2] corresponds to a Ki of 40 nM.

As for `Cc1cc2c(cnn2-c2ccc(F)cc2)cc1C1(Cc2ccccc2)CCN(C(=O)c2cncs2)C1` (stereo not shown) [Example 232, (3-benzyl-3-(1-(4-fluorophenyl)-6-methyl-1H-indazol-5-yl)pyrrolidin-1-yl)(thiazol-5-yl)methanone], in assay [1], the 50% inhibitory concentration (IC50) was found to be 10 nM. The affinity in assay [2] corresponds to a Ki of 37 nM.

In the case of `COc1cc2c(cnn2-c2ccc(F)cc2)cc1C1(Cc2ccccc2)CCN(S(=O)(=O)c2cnn(C)c2)C1` (stereo not shown) [Example 161], the IC50 in assay [1] is 11 nM. The same molecule gave an inhibition constant Ki in assay [2] of 39 nM.

On to `Cc1cc2c(cnn2-c2ccc(F)cc2)cc1N1CCN(S(=O)(=O)c2cnn(C(C)C)n2)C2(CC2)C1` [Example 68], for which, in assay [1], the IC50 is 35 nM. The molecule further showed an inhibitory constant (Ki) in assay [2] of 30 nM.

Turning to `Cc1cc2c(cnn2-c2ccc(F)cc2)cc1C1(Cc2ccccn2)CCN(S(C)(=O)=O)C1` (stereo not shown) [Example 150], the IC50 in assay [1] worked out at 13 nM. In assay [2], this molecule showed an inhibition constant Ki of 169 nM.

In the case of `CCc1cc(-n2ncc3cc(C4(Cc5ccccc5)CCN(S(=O)(=O)c5cnn(C)n5)C4)c(C)cc32)cn(C)c1=O` (stereo not shown) [Example 263, 5-(5-(3-benzyl-1-((2-methyl-2H-1,2,3-triazol-4-yl)sulfonyl)pyrrolidin-3-yl)-6-methyl-1H-indazol-1-yl)-3-ethyl-1-methylpyridin-2(1H)-one], the IC50 in assay [1] was 110 nM. For the same molecule, the affinity in assay [2], expressed as Ki, was 100 nM.

Take `CCCn1cc(S(=O)(=O)N2CCC(c3cc4cnn(-c5ccc(F)cc5)c4cc3C)CC2)cn1` [Example 6, 1-(4-fluorophenyl)-6-methyl-5-(1-((1-propyl-1H-pyrazol-4-yl)sulfonyl)piperidin-4-yl)-1H-indazole]: the half-inhibitory concentration (IC50) in assay [1] amounted to 148 nM. Affinity in assay [2] was put at a Ki of 118 nM.

Turning to `Cc1cc2c(cnn2-c2ccc(=O)n(C)c2)cc1C1(Cc2ccccc2)CCN(C(=O)C2CC2)C1` (stereo not shown) [Example 332, 5-(5-(3-benzyl-1-(cyclopropanecarbonyl)pyrrolidin-3-yl)-6-methyl-1H-indazol-1-yl)-1-methylpyridin-2(1H)-one], the IC50 in assay [1] is 20 nM. Besides, in assay [2], the affinity corresponds to a Ki of 160 nM.

With `Cc1ncc(S(=O)(=O)N2CCC(Cc3ccccc3)(c3cc4cnn(-c5ccc(=O)n(C)c5)c4cc3C)C2)cn1` (stereo not shown) [Example 322, 5-(5-(3-benzyl-1-((2-methylpyrimidin-5-yl)sulfonyl)pyrrolidin-3-yl)-6-methyl-1H-indazol-1-yl)-1-methylpyridin-2(1H)-one], the IC50 in assay [1] was found to be 24 nM. This molecule also had a Ki in assay [2] of 77 nM.

With `Cc1cc2c(cnn2-c2ccc(F)cc2)cc1N1CCC(C)(NS(=O)(=O)c2cnn(CC3CC3)n2)CC1` [Example 132], in assay [1], the IC50 was 13 nM. In assay [2], this molecule had a Ki of 34 nM.

In the case of `Cc1cc2c(cnn2-c2ccc(F)cc2)cc1C1(Cc2ccccc2)CCN(S(C)(=O)=O)C1` (stereo not shown) [Example 16, 5-(3-benzyl-1-(methylsulfonyl)pyrrolidin-3-yl)-1-(4-fluorophenyl)-6-methyl-1H-indazole], the IC50 in assay [1] turned out to be 8 nM. In addition, the Ki in assay [2] was 32 nM.

For the molecule `Cc1cc2c(cnn2-c2ccc(F)cc2)cc1N1CCN(S(C)(=O)=O)C2(CC2)C1` [Example 58], in assay [1], the IC50 was found to be 32 nM. Further, the Ki in assay [2] worked out at 321 nM.

For the molecule `COc1ccc(S(=O)(=O)N2CCC(Cc3ccccc3)(c3cc4cnn(-c5ccc(=O)n(C)c5)c4cc3C)C2)cc1` (stereo not shown) [Example 304, 5-(5-(3-benzyl-1-((4-methoxyphenyl)sulfonyl)pyrrolidin-3-yl)-6-methyl-1H-indazol-1-yl)-1-methylpyridin-2(1H)-one], the IC50 in assay [1] amounted to 7.5 nM. In assay [2], the inhibitory constant (Ki) worked out at 48 nM.

For the molecule `Cc1cc2c(cnn2-c2ccc(F)cc2)cc1N1CCC[C@H](N(C)S(C)(=O)=O)C1` [Example 123], in assay [1], the IC50 is 73 nM. The same molecule had an inhibition constant (Ki) in assay [2] of 284 nM.

Consider `Cc1cc2c(cnn2-c2ccc(=O)n(C)c2)cc1C1(Cc2ccccc2)CCN(C(=O)c2ccsc2)C1` (stereo not shown) [Example 329, 5-(5-(3-benzyl-1-(thiophene-3-carbonyl)pyrrolidin-3-yl)-6-methyl-1H-indazol-1-yl)-1-methylpyridin-2(1H)-one], for which the IC50 in assay [1] amounted to 10 nM. Besides, the affinity in assay [2] corresponds to a Ki of 140 nM.

In the case of `COc1cc2c(cnn2-c2ccc(F)cc2)cc1C1(Cc2ccc(F)cc2)CCN(S(=O)(=O)c2cnn(C)n2)C1` (stereo not shown) [Example 219, 5-(3-(4-fluorobenzyl)-1-((2-methyl-2H-1,2,3-triazol-4-yl)sulfonyl)pyrrolidin-3-yl)-1-(4-fluorophenyl)-6-methoxy-1H-indazole], the half-maximal inhibitory concentration (IC50) in assay [1] is 26 nM. The same molecule had a Ki in assay [2] of 13 nM.

Consider `Cc1cc2c(cnn2-c2ccc(=O)n(C)c2)cc1C1(Cc2ccccc2)CCN(S(=O)(=O)c2cccnc2)C1` (stereo not shown) [Example 286, 5-(5-(3-benzyl-1-(pyridin-3-ylsulfonyl)pyrrolidin-3-yl)-6-methyl-1H-indazol-1-yl)-1-methylpyridin-2(1H)-one], for which the IC50 in assay [1] is 11 nM. Besides, the affinity in assay [2] corresponds to a Ki of 52 nM.

Regarding `CCCn1cc(S(=O)(=O)N2C3CC2CN(c2cc4cnn(-c5ccc(F)cc5)c4cc2C)C3)cn1` [Example 73], the half-maximal inhibitory concentration (IC50) in assay [1] came to 151 nM. Besides, the inhibition constant (Ki) in assay [2] worked out at 306 nM.

`C[C@@H]1CN(c2ccc3c(cnn3-c3ccc(F)cc3)c2)CCN1S(=O)(=O)c1ccnn1C` [Example 65]: the IC50 in assay [1] came to 334 nM. Moreover, the Ki in assay [2] amounted to 1480 nM.

`Cc1cc2c(cnn2-c2ccc(F)cc2)cc1C1(Cc2ccccc2)CCN(C(=O)c2ccccc2)C1` (stereo not shown) [Example 193, (3-benzyl-3-(1-(4-fluorophenyl)-6-methyl-1H-indazol-5-yl)pyrrolidin-1-yl)(phenyl)methanone]: the IC50 in assay [1] was 28 nM. The same molecule displayed a Ki in assay [2] of 25 nM.

Consider `COc1cc2c(cnn2-c2ccc(=O)n(C)c2)cc1C1(Cc2ccccc2)CCN(S(=O)(=O)c2cnn(C)n2)C1` (stereo not shown) [Example 265, 5-(5-(3-benzyl-1-((2-methyl-2H-1,2,3-triazol-4-yl)sulfonyl)pyrrolidin-3-yl)-6-methoxy-1H-indazol-1-yl)-1-methylpyridin-2(1H)-one], for which, in assay [1], the IC50 was determined as 16 nM. Affinity in assay [2] was put at a Ki of 120 nM.

Consider `Cc1cc2c(cnn2-c2ccc(F)cc2)cc1N1CCC(C)(NS(=O)(=O)c2cnn(CC3CC3)c2)CC1` [Example 133], for which the IC50 in assay [1] was found to be 7 nM. In assay [2], this molecule registered a Ki of 50 nM.
